The values that follow come from patent publication US11254668B2, “Pyrazolo[1,5-A]pyrazin-4-yl and related derivatives” (Pfizer Inc., priority 2017, dated 2022).

Type in all cases: biochemical
What all share (conditions): JAK Caliper enzyme assay

The target of one experiment is JAK3 (Homo sapiens (Human), UniProt P52333). Nature of the experiment: JAK Caliper Enzyme Assay at 1 mM ATP, JAK3. Summed up:
(§1)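 Recombinant human kinase domains phosphorylate a fluorescent synthetic peptide at 1 mM ATP, room temperature, with enzyme and time tuned for 20-30% conversion; EDTA-stopped. Product/substrate separated by microfluidic mobility shift; percent effect versus DMSO and positive controls fitted to IC50 (nM).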

The next experiment deals with TYK2 (Homo sapiens (Human), UniProt P29597). Nature of the experiment: JAK Caliper Enzyme Assay at 1 mM ATP, TYK2. Summed up: (§2)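 Recombinant human kinase domains phosphorylate a fluorescent synthetic peptide at 1 mM ATP and room temperature, with enzyme level and time tuned to 20–30% conversion before an EDTA stop. Microfluidic mobility-shift separation gives percent product from peak heights. Percent effect against plate controls (DMSO baseline) is plotted versus compound concentration.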

The next experiment deals with JAK1 (Homo sapiens (Human), UniProt P23458). Nature of the experiment: JAK Caliper Enzyme Assay at 1 mM ATP, JAK1. Summed up:
as §1

For another experiment, the target named is JAK2 (Homo sapiens (Human), UniProt O60674). In words: JAK Caliper Enzyme Assay at 1 mM ATP, JAK2. In short, it runs like this:
as §2

Bounds are passed on as bounds.

Chain of JAK1 (P23458 875-1153): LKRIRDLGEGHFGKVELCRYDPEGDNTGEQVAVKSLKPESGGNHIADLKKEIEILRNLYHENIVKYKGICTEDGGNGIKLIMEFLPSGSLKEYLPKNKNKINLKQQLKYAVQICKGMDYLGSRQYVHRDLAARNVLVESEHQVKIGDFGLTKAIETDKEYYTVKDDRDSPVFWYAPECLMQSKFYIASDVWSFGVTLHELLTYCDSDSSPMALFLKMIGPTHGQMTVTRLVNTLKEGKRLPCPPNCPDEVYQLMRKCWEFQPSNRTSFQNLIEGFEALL
Chain of TYK2 (P29597 897-1176): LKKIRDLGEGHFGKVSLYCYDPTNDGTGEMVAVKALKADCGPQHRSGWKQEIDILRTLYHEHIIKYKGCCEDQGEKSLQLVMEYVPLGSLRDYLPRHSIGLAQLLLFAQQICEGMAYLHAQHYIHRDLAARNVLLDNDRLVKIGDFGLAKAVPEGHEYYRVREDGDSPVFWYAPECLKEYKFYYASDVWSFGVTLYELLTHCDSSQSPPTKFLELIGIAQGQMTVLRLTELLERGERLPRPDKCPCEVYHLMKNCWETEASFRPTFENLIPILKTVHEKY
Chain of JAK3 (P52333 822-1111): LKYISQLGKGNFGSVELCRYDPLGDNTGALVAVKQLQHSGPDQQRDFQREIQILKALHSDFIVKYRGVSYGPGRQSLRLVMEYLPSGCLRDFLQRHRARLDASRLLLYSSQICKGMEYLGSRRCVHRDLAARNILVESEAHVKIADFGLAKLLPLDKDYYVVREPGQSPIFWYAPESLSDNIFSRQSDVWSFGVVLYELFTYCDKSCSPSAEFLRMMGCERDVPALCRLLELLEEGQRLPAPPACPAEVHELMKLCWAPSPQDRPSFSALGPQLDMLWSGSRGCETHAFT
Chain of JAK2 (O60674 849-1124): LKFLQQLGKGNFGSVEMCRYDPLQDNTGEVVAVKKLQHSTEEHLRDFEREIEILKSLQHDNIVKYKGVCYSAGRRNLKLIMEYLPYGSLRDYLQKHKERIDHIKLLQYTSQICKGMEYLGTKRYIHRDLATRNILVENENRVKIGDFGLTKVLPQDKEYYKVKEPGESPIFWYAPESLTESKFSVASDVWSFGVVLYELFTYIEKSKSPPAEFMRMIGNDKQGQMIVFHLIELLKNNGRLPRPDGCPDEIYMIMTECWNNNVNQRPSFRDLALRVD

As a reminder, the IC50 is the midpoint of a concentration-inhibition curve. As for `Cc1nc(-c2cc(-c3cnn([C@]4(CC#N)C[C@@H](C#N)C4)n3)c3cccnc3c2)ccc1O` [Example 382, trans-3-(cyanomethyl)-3-{4-[7-(5-hydroxy-6-methylpyridin-2-yl)quinolin-5-yl]-2H-1,2,3-triazol-2-yl}cyclobutanecarbonitrile], the IC50 was more than 10 µM on JAK3, 0.141 µM at TYK2, 3.06 µM on JAK1 and 1.02 µM at JAK2.

Take `COc1nc(-c2cc(-c3cnn([C@]4(CC#N)C[C@H](C#N)C4)n3)c3cccnc3c2)ccc1N` [Example 383, cis-3-{4-[7-(5-amino-6-methoxypyridin-2-yl)quinolin-5-yl]-2H-1,2,3-triazol-2-yl}-3-(cyanomethyl)cyclobutanecarbonitrile]: the IC50 was 4.25 µM at JAK3, 0.007 µM on TYK2, 0.059 µM at JAK1 and 0.035 µM on JAK2.

As to `COc1nc(-c2cc(-c3cnn([C@]4(CC#N)C[C@@H](C#N)C4)n3)c3cccnc3c2)ccc1N` [Example 384, trans-3-{4-[7-(5-amino-6-methontpyridin-2-yl)quinolin-5-yl]-2H-1,2,3-triazol-2-yl}-3-(cyanomethyl)cyclobutanecarbonitrile], the IC50 at JAK3 is more than 10 µM; on TYK2, 0.033 µM; at JAK1, 0.769 µM; at JAK2, 0.256 µM.

Take `N#CC[C@]1(n2ncc(-c3cc(-c4cc(C(N)=O)c(F)cn4)cc4ncccc34)n2)C[C@H](C#N)C1` [Example 385, 2-(5-{2-[cis-3-cyano-1-(cyanomethyl)cyclobutyl]-2H-1,2,3-triazol-4-yl}quinolin-7-yl)5-fluoropyridine-4-carboxamide]: the IC50 at JAK3 is more than 10 µM; at TYK2 it was 0.984 µM; at JAK1, 6.27 µM; at JAK2, 6.79 µM.

For `N#CC[C@]1(n2ncc(-c3cc(-c4cc(C(N)=O)c(F)cn4)cc4ncccc34)n2)C[C@@H](C#N)C1` [Example 386, 2-(5-{2-[trans-3-cyano-1-(cyanomethyl)cyclobutyl]-2H-1,2,3-triazol-4-yl}quinolin-7-yl)-5-fluoropyridine-4-carboxamide], the IC50 at JAK3 was more than 10 µM; on TYK2, 3.76 µM; on JAK1, more than 10 µM; at JAK2, more than 10 µM.

Consider `N#CC[C@]1(n2ncc(-c3cc(-c4cc(O)ncc4F)cc4ncccc34)n2)C[C@@H](C#N)C1` [Example 387, cis-3-(cyanomethyl)-3-{4-[7-(5-fluoro-2-hydroxpyridin-4-yl)quinolin-5-yl]-2H-1,2,3-triazol-2-yl}cyclobutanecarbonitrile], for which the IC50 was more than 10 µM on JAK3, 4.84 µM at TYK2, more than 10 µM on JAK1 and more than 10 µM on JAK2.

With `Cc1cc(-c2cc(-c3cnn(C4(CC#N)CN(S(C)(=O)=O)C4)n3)c3cccnc3c2)cnc1N` [Example 388, [3-{4-[7-(6-amino-5-methylpyridin-3-yl)quinolin-5-yl]-2H-1,2,3-triazol-2-yl}-1-(methylsulfonyl)azetidin-3-yl]acetonitrile], the IC50 on JAK3 was more than 10 µM; on TYK2 it was 1.78 µM; at JAK1 it was more than 10 µM; on JAK2, 6.88 µM.

Turning to `CS(=O)(=O)N1CC(CC#N)(n2ncc(-c3cc(-c4cncnc4)cc4ncccc34)n2)C1` [Example 389, [1-(methylsulfonyl)-3-{4-[7-(pyrimidin-5-yl)quinolin-5-yl]-2H-1,2,3-triazol-2-yl}azetidin-3-yl]acetonitrile], the IC50 at JAK3 was more than 10 µM; at TYK2, 5.04 µM; at JAK1, more than 10 µM; on JAK2, more than 10 µM.

Consider `N#CCC1(n2ncc(-c3cc(-c4ncccn4)cc4ncccc34)n2)CC(C#N)C1` (stereo not drawn) [Example 390, trans-3-(cyanomethyl)-3-{4-[7-(pyrimidin-2-yl)quinolin-5-yl]-2H-1,2,3-triazol-2-yl}cyclobutanecarbonitrile], for which the IC50 was more than 10 µM on JAK3, 1.28 µM at TYK2, more than 10 µM at JAK1 and more than 10 µM at JAK2.

Take `N#CC[C@]1(n2ncc(-c3cc(-c4cncnc4)cc4ncccc34)n2)C[C@@H](C#N)C1` [Example 391, cis-3-(cyanomethyl)-3-{4-[7-(pyrimidin-5-yl)quinolin-5-yl]-2H-1,2,3-triazol-2-yl}cyclobutanecarbonitrile]: the IC50 at JAK3 is more than 10 µM; at TYK2 it was 2.84 µM; on JAK1, more than 10 µM; on JAK2, 9.84 µM.

On to `N#CC[C@]1(n2ncc(-c3cc(-c4cnccn4)cc4ncccc34)n2)C[C@@H](C#N)C1` [Example 392, cis-3-(cyanomethyl)-3-{4-[7-(pyrazin-2-yl)quinolin-5-yl]-2H-1,2,3-triazol-2-yl}cyclobutanecarbonitrile], for which the IC50 on JAK3 is more than 10 µM; on TYK2 it was 0.66 µM; at JAK1, 7.11 µM; at JAK2, 3.05 µM.

As for `CS(=O)(=O)N1CC(CC#N)(n2ncc(-c3cc(-c4cnc(N)nc4)cc4ncccc34)n2)C1` [Example 393, [3-{4-[7-(2-aminopyrimidin-5-yl)quinolin-5-yl]-2H-1,2,3-triazol-2-yl}-1-(methylsulfonyl)azetidin-3-yl]acetonitrile], the IC50 was more than 10 µM on JAK3, 3.47 µM on TYK2, more than 10 µM on JAK1 and more than 10 µM at JAK2.

Regarding `N#CC[C@]1(n2ncc(-c3cc(-c4cc(N)ncn4)cc4ncccc34)n2)C[C@@H](C#N)C1` [Example 395, cis-3-{4-[7-(6-aminopyrimidin-4-yl)quinolin-5-yl]-2H-1,2,3-triazol-2-yl}-3-(cyanomethyl)cyclobutanecarbonitrile], the IC50 on JAK3 is more than 10 µM; at TYK2 it was 0.078 µM; at JAK1 it was 6.35 µM; on JAK2, 0.774 µM.

Consider `N#CC[C@]1(n2ncc(-c3cc(-c4cncc(N)n4)cc4ncccc34)n2)C[C@@H](C#N)C1` [Example 396, cis-3-{4-[7-(6-aminopyrazin-2-yl)quinolin-5-yl]-2H-1,2,3-triazol-2-yl}-3-(cyanomethyl)cyclobutanecarbonitrile], for which the IC50 on JAK3 is more than 10 µM; at TYK2, 0.506 µM; at JAK1 it was 3.33 µM; on JAK2 it was 1.48 µM.

In the case of `N#CC[C@]1(n2ncc(-c3cc(-c4cnc(N)cn4)cc4ncccc34)n2)C[C@@H](C#N)C1` [Example 398, cis-3-{4-[7-(5-aminopyrazin-2-yl)quinolin-5-yl]-2H-1,2,3-triazol-2-yl}-3-(cyanomethyl)cyclobutanecarbonitrile], the IC50 at JAK3 was more than 10 µM; at TYK2, 0.204 µM; at JAK1, 1.9 µM; on JAK2 it was 1.04 µM.

Regarding `N#CC[C@]1(n2ncc(-c3cc(-c4cnc(N)cn4)cc4ncccc34)n2)C[C@H](C#N)C1` [Example 399, trans-3-{4-[7-(5-aminopyrazin-2-yl)quinolin-5-yl]-2H-1,2,3-triazol-2-yl}-3-(cyanomethyl)cyclobutanecarbonitrile], the IC50 at JAK3 is more than 10 µM; at TYK2, 2.4 µM; at JAK1, more than 10 µM; on JAK2, more than 10 µM.
